Data as given in ChEMBL document CHEMBL2146391, “Glucose uptake stimulatory effect of 4-hydroxypipecolic acid by increased GLUT 4 translocation in skeletal muscle cells” (Bioorg Med Chem Lett, 2012).
Activity calls are given as the source filed them. No cut-off for these calls is given here.

Experiments:
L6 [1] = experiment: Induction of IRS-1 mRNA expression in rat L6-GLUT4myc myotubes at 25 uM after 16 hrs by semiquantitative RT-PCR analysis; type: functional, cell-based
L6 [2] = experiment: Induction of GLUT4 translocation from intracellular compartment into plasma membrane of rat L6-GLUT4myc myotubes at 25 uM after 16 hrs by O-phenylenediamide based enzymatic assay relative to control; type: functional
L6 [3] = experiment: Hypoglycemic activity in rat L6-GLUT4myc myotubes assessed as increase in 2-[3H]-deoxyglucose uptake at 5 uM after 16 hrs by scintillation counter; type: functional, cell-based
L6 [4] = experiment: Increase of insulin-stimulated GLUT4 translocation from intracellular compartment into plasma membrane of rat L6-GLUT4myc myotubes at 25 uM after 16 hrs by O-phenylenediamide based enzymatic assay; type: functional, cell-based
L6 [5] = experiment: Cytotoxicity against rat L6-GLUT4myc myotubes assessed as change in protein level at 25 uM after 16 hrs; type: cell-based; conditions: l6, 16 h
L6 [6] = experiment: Hypoglycemic activity in rat L6-GLUT4myc myotubes assessed as increase in 2-[3H]-deoxyglucose uptake after 16 hrs by scintillation counter; type: functional, cell-based
L6 [7] = experiment: Induction of GLUT4 mRNA expression in rat L6-GLUT4myc myotubes at 25 uM after 16 hrs by semiquantitative RT-PCR analysis; type: functional, cell-based
L6 [8] = experiment: Induction of PKB mRNA expression in rat L6-GLUT4myc myotubes at 25 uM after 16 hrs by semiquantitative RT-PCR analysis; type: functional, cell-based
L6 [9] = experiment: Cytotoxicity against rat L6-GLUT4myc myotubes assessed as cell viability at 25 uM after 16 hrs by MTT assay; type: cell-based; conditions: l6, 16 h
L6 [10] = experiment: Induction of GLUT4 translocation from intracellular compartment into plasma membrane of rat L6-GLUT4myc myotubes at 25 uM by O-phenylenediamide based enzymatic assay relative to control; type: functional, cell-based; conditions: TDE = time-dependent effect
L6 [11] = experiment: Induction of GLUT4 translocation from intracellular compartment into plasma membrane of rat L6-GLUT4myc myotubes at 10 uM after 16 hrs by O-phenylenediamide based enzymatic assay; type: functional, cell-based
L6 [12] = experiment: Hypoglycemic activity in rat L6-GLUT4myc myotubes assessed as increase in 2-[3H]-deoxyglucose uptake at 25 uM after 16 hrs by scintillation counter relative to control; type: functional
L6 [13] = experiment: Increase of insulin-stimulated GLUT4 translocation from intracellular compartment into plasma membrane of rat L6-GLUT4myc myotubes at 25 uM after 16 hrs by O-phenylenediamide based enzymatic assay in presence of PI3K inhibitor wortmannin; type: functional, cell-based
L6 [14] = experiment: Induction of GLUT4 translocation from intracellular compartment into plasma membrane of rat L6-GLUT4myc myotubes after 16 hrs by O-phenylenediamide based enzymatic assay; type: functional, cell-based

O=C(O)C1C[C@@H](O)CCN1 (some centres undefined)
Activity (L6 [1]): Active | Activity (L6 [2]): 130% | Activity (L6 [3]): Active | Activity (L6 [4]): Active | Activity (L6 [5]): Non-toxic | Activity (L6 [6]): Dose-dependent effect | Activity (L6 [7]): inactive | Activity (L6 [8]): inactive | Activity (L6 [9]): Non-toxic | Activity (L6 [10]): tde | Activity (L6 [11]): Active | fold change (FC) (L6 [12]): 1.25 | Activity (L6 [13]): inactive | Activity (L6 [14]): Dose-dependent effect
